Reference: PubChem BioAssay AID504680 (Sanford-Burnham Center for Chemical Genomics, 2011)
Activity calls are given as the source filed them.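 The calls were made as follows: active = IC50 below 100 µM in the TR-FRET assay, unless also active in the caspase-3 counter assay; inactive = the rest, including compounds also active in caspase-3.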

Molecular target: Caspase-3 (Homo sapiens) (UniProt P42574)
Experiment: caspase-3 inhibitors as false-positive filter, SAR follow-up, counter-screen for UBC13 polyubiquitin inhibitor project, biochemical, luminescence, Caspase-Glo 3/7 (AID 504680)
Conditions: recombinant caspase-3, Caspase-Glo luminescence, 60 min

Caspase-3 (Homo sapiens), sequence (P42574 whole entry, looked up): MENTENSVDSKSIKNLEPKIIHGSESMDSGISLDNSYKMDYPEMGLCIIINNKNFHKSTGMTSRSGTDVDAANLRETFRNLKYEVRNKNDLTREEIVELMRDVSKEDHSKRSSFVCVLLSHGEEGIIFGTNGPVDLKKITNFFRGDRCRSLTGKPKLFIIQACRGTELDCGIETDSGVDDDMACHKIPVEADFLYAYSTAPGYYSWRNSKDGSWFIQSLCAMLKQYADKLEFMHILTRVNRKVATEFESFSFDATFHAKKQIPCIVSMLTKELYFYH

Compound	IC50
O=C(CCCCCN1C(=O)c2ccccc2C1=O)Nc1ccc(S(=O)(=O)N2CCCCC2)cc1	> 100 µM (inactive)
COc1ccc(CCNC(=O)CCCCCN2C(=O)c3ccccc3C2=O)cc1	> 100 µM (inactive)
O=C1c2cccc3cccc(c23)C(=O)N1CC1CCN(CC(O)COCc2ccc3c(c2)OCO3)CC1 (configuration not stated)	> 100 µM (inactive)
CN(C)CCCn1c(SCC(=O)Nc2nc(-c3cccc(Br)c3)cs2)nc2ccccc2c1=O	> 100 µM (inactive)
CCCOC(=O)c1ccc(NC(=O)CCCCCN2C(=O)c3ccccc3C2=O)cc1	> 100 µM (inactive)
O=C(C1COc2ccccc2O1)N1CCN(CCN2C(=O)c3cccc4cccc(c34)C2=O)CC1 (configuration not stated)	> 100 µM (inactive)
Cc1ccc2c(c1)C1CN(C)CCC1N2C(=O)CCCN1C(=O)c2cccc3cccc(c23)C1=O (configuration not stated)	> 100 µM (inactive)
CCOC(=O)c1c(NC(=O)COc2ccccc2C#N)sc2c1CC(C)(C)NC2(C)C	> 100 µM (inactive)
Cc1ccc(C)c(CN2CCC(CNC(=O)C3CCCN(c4ncnc5c4nc4n5CCCCC4)C3)CC2)c1 (configuration not stated)	> 100 µM (inactive)
CN1CCN(CCCNC(=O)c2ccc(/C=C3\Oc4ccccc4N(Cc4ccc(Cl)cc4)C3=O)cc2)CC1	> 100 µM (inactive)
CN(C)CCCN(C(=O)c1ccc(C(=O)c2ccccc2)cc1)c1nc2cc3c(cc2s1)OCO3	> 100 µM (inactive)
CC1CC(C)CN(C(=O)C2CCN(c3ncnc4c3nc3n4CCCCC3)CC2)C1 (configuration not stated)	> 100 µM (inactive)
Cc1cc(NC(=O)Cn2c(=O)n(CCCCC(=O)NC3CCN(Cc4ccccc4)CC3)c(=O)c3ccccc32)n[nH]1	> 100 µM (inactive)
CCOc1ccc(NC(=O)Cn2c(=O)n(CCCC(=O)NC3CCN(Cc4ccccc4)CC3)c(=O)c3ccccc32)cc1	> 100 µM (inactive)
O=C1c2cccc3cccc(c23)C(=O)N1CCN1CCN(CC(O)COc2ccc(Cl)cc2)CC1 (configuration not stated)	> 100 µM (inactive)
O=C(NCC1CCN(Cc2ccc(F)cc2)CC1)C1CCCN(c2ncnc3c2nc2n3CCCCC2)C1 (configuration not stated)	> 100 µM (inactive)
CN(C)CCCN(C(=O)c1ccc(S(=O)(=O)N2CCCCCC2)cc1)c1nc2ccc(Br)cc2s1	> 100 µM (inactive)
COc1ccccc1NC(=S)NC(=O)CCCCCN1C(=O)c2ccccc2C1=O	> 100 µM (inactive)
O=C(NCC1CCN(Cc2ccccc2F)CC1)C1CCCN(c2ncnc3c2nc2n3CCCCC2)C1 (configuration not stated)	> 100 µM (inactive)
O=C(CCCn1c(=O)c2ccccc2n(Cc2cccc([N+](=O)[O-])c2)c1=O)NC1CCN(Cc2ccccc2)CC1	> 100 µM (inactive)
Cc1cc(C)cc(OCCNC(=O)CCCCCN2C(=O)c3ccccc3C2=O)c1	> 100 µM (inactive)

Compound	IC50
O=C(CCCCCN1C(=O)c2ccccc2C1=O)Nc1ccc(S(=O)(=O)Nc2ncccn2)cc1	> 100 µM (inactive)
Cc1cc(C)c2sc(N(CCCN(C)C)C(=O)c3ccc(S(=O)(=O)N4CCc5ccccc5C4)cc3)nc2c1	> 100 µM (inactive)
COCCOC(=O)c1ccc(NC(=O)CCCCCN2C(=O)c3ccccc3C2=O)cc1	> 100 µM (inactive)
Cc1ccccc1OCC(O)CN1CCN(CCN2C(=O)c3cccc4cccc(c34)C2=O)CC1 (configuration not stated)	> 100 µM (inactive)
O=C(CCCCCN1C(=O)c2cccc3cccc(c23)C1=O)NCCO	> 100 µM (inactive)
CN(CCNC(=O)C1CCN(c2ncnc3c2nc2n3CCCCC2)CC1)Cc1ccccc1	> 100 µM (inactive)
CN(C)CCCN(C(=O)c1ccc(S(=O)(=O)N2CCCC2)cc1)c1nc2ccc(Br)cc2s1	> 100 µM (inactive)
O=C(CCCn1c(=O)c2ccccc2n(Cc2cccc(F)c2)c1=O)NC1CCN(Cc2ccccc2)CC1	> 100 µM (inactive)
COc1cccc2sc(N(CCCN(C)C)C(=O)c3ccc(S(=O)(=O)N4CCc5ccccc5C4)cc3)nc12	> 100 µM (inactive)
CC1CN(S(=O)(=O)c2ccc(NC(=O)CCCCCN3C(=O)c4ccccc4C3=O)cc2)CC(C)O1 (configuration not stated)	> 100 µM (inactive)
O=C(C1CCN(c2ncnc3c2nc2n3CCCCC2)CC1)N1CCC(Cc2ccccc2)CC1	> 100 µM (inactive)
CCN(Cc1ccccc1)S(=O)(=O)c1ccc(C(=O)N(CCCN(C)C)c2nc3cc4c(cc3s2)OCCO4)cc1	> 100 µM (inactive)
CCCCN(CC)S(=O)(=O)c1ccc(C(=O)N(CCCN(C)C)c2nc3cc(C)cc(C)c3s2)cc1	> 100 µM (inactive)
O=C(CCCCCN1C(=O)c2ccccc2C1=O)Nc1nc(C2CC2)cs1	> 100 µM (inactive)
O=C1c2cccc3cccc(c23)C(=O)N1CCN1CCN(CC(O)COc2ccccc2)CC1 (configuration not stated)	> 100 µM (inactive)
CC(=O)c1ccccc1OCC(O)CN1CCN(CCN2C(=O)c3cccc4cccc(c34)C2=O)CC1 (configuration not stated)	> 100 µM (inactive)
CC(NC(=O)CCCCCN1C(=O)c2cccc([N+](=O)[O-])c2C1=O)c1ccccc1 (configuration not stated)	> 100 µM (inactive)
COc1ccc2sc(N(CCCN(C)C)C(=O)c3ccc(S(=O)(=O)N(C)Cc4ccccc4)cc3)nc2c1	> 100 µM (inactive)
O=C1c2cccc3cccc(c23)C(=O)N1CCN1CCN(CC(O)COc2ccc3ccccc3c2)CC1 (configuration not stated)	> 100 µM (inactive)
O=C(CCCCCN1C(=O)c2ccccc2C1=O)NCc1ccco1	> 100 µM (inactive)
CC(C)(C)c1ccc(OCC(O)CN2CCN(CCN3C(=O)c4cccc5cccc(c45)C3=O)CC2)cc1 (configuration not stated)	> 100 µM (inactive)

Compound	IC50
COc1ccc(-c2oc3ncnc(N)c3c2-c2ccccc2)cc1	> 100 µM (inactive)
O=C(CCCCn1c(=O)c2ccccc2n(Cc2ccccc2F)c1=O)NC1CCN(Cc2ccccc2)CC1	> 100 µM (inactive)
COc1cc2nc(N(CCCN(C)C)C(=O)c3ccc(S(=O)(=O)N4CCc5ccccc5C4)cc3)sc2cc1OC	> 100 µM (inactive)
O=C(CCCCCN1C(=O)c2ccccc2C1=O)NCc1ccccc1	> 100 µM (inactive)
COc1ccc(C(=O)Nn2c(C)nc3ccccc3c2=O)cc1	> 100 µM (inactive)
Cc1[nH]c2c(Cl)c(Cl)ccc2c1CCNC(=O)CCCCCN1C(=O)c2ccccc2C1=O	> 100 µM (inactive)
CN(C)CCCN(C(=O)c1ccc(S(=O)(=O)N2CCc3ccccc3C2)cc1)c1nc2ccc(F)cc2s1	> 100 µM (inactive)
CCOc1ccc2nc(N(CCCN(C)C)C(=O)c3ccc(C(=O)c4ccccc4)cc3)sc2c1	> 100 µM (inactive)
COC(=O)c1ccc(OCC(O)CN2CCN(CCN3C(=O)c4cccc5cccc(c45)C3=O)CC2)cc1 (configuration not stated)	> 100 µM (inactive)
COc1ccc(CCNC(=O)CCCCCN2C(=O)c3ccccc3C2=O)cc1OC	> 100 µM (inactive)
O=C1c2cccc3cccc(c23)C(=O)N1CC1CCN(CC(O)COc2ccc3ccccc3c2)CC1 (configuration not stated)	> 100 µM (inactive)
CN(C)CCCN(C(=O)c1ccc(C(=O)c2ccccc2)cc1)c1nc2cc3c(cc2s1)OCCO3	> 100 µM (inactive)
CN(C)CCCN(C(=O)c1ccc(S(=O)(=O)N2CCCCC2)cc1)c1nc2cc3c(cc2s1)OCO3	> 100 µM (inactive)
COc1ccc2sc(N(CCCN(C)C)C(=O)c3ccc(S(=O)(=O)N4CCc5ccccc5C4)cc3)nc2c1	> 100 µM (inactive)
O=C1c2cccc3cccc(c23)C(=O)N1CCN1CCN(CC(O)COCc2ccc(Cl)cc2)CC1 (configuration not stated)	> 100 µM (inactive)
Cc1ccccc1NC(=S)NC(=O)CCCCCN1C(=O)c2ccccc2C1=O	> 100 µM (inactive)
O=C(C1CCN(c2ncnc3c2nc2n3CCCCC2)CC1)N1CCN(Cc2ccccc2)CC1	> 100 µM (inactive)
CCOc1ccc2nc(N(CCCN(C)C)C(=O)c3ccc(S(=O)(=O)N4CCc5ccccc5C4)cc3)sc2c1	> 100 µM (inactive)
CC1(C)Cc2c(sc(NC(=O)COc3ccc(Cl)cc3Cl)c2C(N)=O)C(C)(C)N1	> 100 µM (inactive)
O=C1c2cccc3cccc(c23)N1Cc1ccc(F)cc1	> 100 µM (inactive)
Cc1cccc(C)c1NC(=O)Cn1c(=O)n(CCCC(=O)NC2CCN(Cc3ccccc3)CC2)c(=O)c2ccccc21	> 100 µM (inactive)

Compound	IC50
O=C(CCCCn1c(=O)c2ccccc2n(Cc2ccccc2)c1=O)NC1CCN(Cc2ccccc2)CC1	> 100 µM (inactive)
N#Cc1ccccc1Cn1c(=O)n(CCCC(=O)NC2CCN(Cc3ccccc3)CC2)c(=O)c2ccccc21	> 100 µM (inactive)
COc1ccc(COCC(O)CN2CCC(CN3C(=O)c4cccc5cccc(c45)C3=O)CC2)cc1OC (configuration not stated)	> 100 µM (inactive)
COc1cccc(OCC(O)CN2CCN(CCN3C(=O)c4cccc5cccc(c45)C3=O)CC2)c1 (configuration not stated)	> 100 µM (inactive)
CCN(Cc1ccccc1)S(=O)(=O)c1ccc(C(=O)N(CCCN(C)C)c2nc3cc(C)cc(C)c3s2)cc1	> 100 µM (inactive)
Cc1ccc2nc(N(CCCN(C)C)C(=O)c3ccc4c(c3)CCCC4)sc2c1	> 100 µM (inactive)
O=C(c1ccc(S(=O)(=O)N2CCCC2)cc1)N1CCC(CN2C(=O)c3cccc4cccc(c34)C2=O)CC1	> 100 µM (inactive)
CN(C)CCCN(C(=O)c1ccc(S(=O)(=O)N(C)Cc2ccccc2)cc1)c1nc2cc3c(cc2s1)OCO3	> 100 µM (inactive)
NNC(=O)c1ccc(CN2C(=O)c3cccc4cccc2c34)cc1	> 100 µM (inactive)
CN(C)CCCN(C(=O)c1ccc(S(=O)(=O)N2CCCCCC2)cc1)c1nc2cc3c(cc2s1)OCCO3	> 100 µM (inactive)
COc1cc(/C=C/c2cc[n+](C)cc2)ccc1OCC(=O)Nc1ccc(Cl)c(Cl)c1	> 100 µM (inactive)
Cc1cc(C)c2sc(N(CCCN(C)C)C(=O)c3ccc(S(=O)(=O)N(C)Cc4ccccc4)cc3)nc2c1	> 100 µM (inactive)
O=C(C1CCN(c2ncnc3c2nc2n3CCCCC2)CC1)N1CCOCC1	> 100 µM (inactive)
CN(C)CCCN(C(=O)c1ccc2c(c1)CCCC2)c1nc2ccc(Cl)cc2s1	> 100 µM (inactive)
CC1CCCCN1C(=O)C1CCN(c2ncnc3c2nc2n3CCCCC2)CC1 (configuration not stated)	> 100 µM (inactive)
O=C(CCCCCN1C(=O)c2cccc3cccc(c23)C1=O)NCc1cccnc1	> 100 µM (inactive)
CC1CCCC(C)N1CCCNC(=O)C1CCCN(c2ncnc3c2nc2n3CCCCC2)C1 (configuration not stated)	> 100 µM (inactive)
O=C(NCC1CCN(Cc2ccc(Cl)cc2)CC1)C1CCCN(c2ncnc3c2nc2n3CCCCC2)C1 (configuration not stated)	> 100 µM (inactive)
COc1cccc(NC(=O)CCCCCN2C(=O)c3cccc([N+](=O)[O-])c3C2=O)c1	> 100 µM (inactive)
